Experimental data taken from the METLIN SMRT retention time set (Domingo-Almenara et al. 2019).

Test: gradient 5% acetonitrile 3 min, to 50% in 2 min, to 85% in 15 min, held 3 min, 100 µL/min
Settings: column: Zorbax Extend-C18 2.1 x 50 mm; eluents: water / acetonitrile, 0.1% formic acid
Outline: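 Pure standards were analyzed in mixtures of ~100 molecules using HPLC coupled to a quadrupole time-of-flight mass spectrometer, in both positive and negative ionization mode. Separation used a Zorbax Extend-C18 column (2.1 × 50 mm, 1.8 μm) at 100 μL/min, with water and acetonitrile each containing 0.1% formic acid. Dead and dwell volumes were 40 μL and 900 μL, and data were collected over 3 months. Retention time was read from computationally picked adduct peaks, each inspected manually.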

SMILES | RP-LC retention time [s]
COc1ccc(S(=O)(=O)N2CCCC(C(=O)NCC3CCCO3)C2)cc1OC (stereo not drawn) | 684
Cc1sc(NC(=O)c2ccco2)nc1-c1ccc2c(c1)NC(=O)C(C)O2 (stereo not drawn) | 814
O=C(N[C@H](Cc1ccccc1)C(=O)NCc1cscn1)c1ccccc1 | 738
CN(C)CC[C@@H](c1ccc(Cl)cc1)c1ccccn1 | 659
CCc1cccc(NC(=O)CCc2c(C)nc3nc(-c4cc(OC)cc(OC)c4)nn3c2C)c1 | 970
Cc1ccccc1CNC(=O)C1CCCN1S(=O)(=O)c1cc2c(cc1Cl)NC(=O)CO2 (stereo not drawn) | 786
Cc1[nH]c(C(=O)N2CCCC(C(=O)NCc3ccccc3F)C2)c(C)c1C(=O)OC(C)C (stereo not drawn) | 860
COc1cccc(OC)c1C(=O)Nc1nc(-c2ccc3c(c2)NC(=O)CO3)c(C)s1 | 785
CC(C)(C)CC(=O)N1CC(c2nc(-c3ccccc3)no2)C2(CCOCC2)C1 (stereo not drawn) | 904
Cc1ccc(F)cc1S(=O)(=O)N1CCc2c(c(-c3nnc(-c4ccccc4F)o3)nn2C)C1 | 981
CCn1nccc1C(=O)NC(C)(C)c1nc2c(c(C(N)=O)n1)OCO2 | 614
Cc1ccc2c(c1)OCC(=O)N2Cc1nc(-c2ccc(C)c(C)c2)no1 | 1160
COc1ccc(C(C)(C)C)cc1S(=O)(=O)Nc1ccc(-c2cn3ccc(C)nc3n2)cc1 | 758
Cn1c(=O)c2cc(C(=O)N3CCN(c4ccc(F)cc4)CC3)sc2n(C)c1=O | 796
CCC(=O)Nc1ccc(N2CCN(CC(=O)N(C)C)CC2)cc1C(=O)O | 573
Cc1ccc(OCC(=O)Nc2cc3c(cc2N2CCOCC2)n(C)c(=O)c(=O)n3C)c(C)c1 | 787
CC(C)(C)CC(=O)N1CCCC(CCc2nnc(C3CCOCC3)o2)C1 (stereo not drawn) | 758
CCc1cc(C(=O)Nc2ccc(F)c(F)c2)no1 | 952
Cc1cc2[nH]c(C(=O)Nc3ccc(F)c(F)c3F)c(CN3CCOCC3)c2s1 | 743
COc1ccc(-c2noc(Cc3nnc(-c4ccc(F)cc4)o3)n2)cc1 | 972
Cn1cccc1Cc1nnc(SCC(=O)N2CCCc3ccccc32)n1C | 767
COc1ccc(-c2noc(Cn3ccn(-c4c(C)cccc4C)c(=O)c3=O)n2)cc1OC | 797

SMILES | RP-LC retention time [s]
O=S(=O)(CCOc1ccccc1)NCc1ccccc1 | 674
COc1ccc(Cn2nc3ccc(S(=O)(=O)N4CCOCC4)cn3c2=O)cc1 | 792
COc1cc2ncc(S(=O)(=O)c3ccc(Cl)cc3)c(N3CCN(C)CC3)c2cc1OC | 634
CCOC(=O)C1CCN(C(=O)Cc2csc(NC(=O)c3ccco3)n2)CC1 | 649
CCc1nccn1Cc1nc(-c2ccc(F)c(Cl)c2)no1 | 669
Cc1c(S(=O)(=O)N2CCCC(C)C2)c(C)n(C)c1C(=O)Nc1ccccc1F (stereo not drawn) | 895
COc1cccc(-c2nc(-c3ccc4oc(C)nc4c3)no2)c1 | 1110
Cc1cc(C(=O)NCC23CCCC=C2NC(=O)CC3)n(C)n1 (stereo not drawn) | 636
COc1ccc(OC)c(S(=O)(=O)N2CCc3nc(-c4ccc(F)cc4)ncc3C2)c1 | 1050
Cc1sc2cc(C(=O)NCCN3CCOCC3)[nH]c2c1CN1CCCCC1 | 551
CC1(c2noc(C3CC3)n2)CCN(C(=O)CCc2cc(Cl)no2)CC1 | 853
COc1ccc(-c2c(C)noc2NC(C)=O)cc1S(=O)(=O)Nc1ccccc1Cl | 783
CCn1nnc2cc(-c3noc(C4CC(=O)N(c5ccc(C)c(C)c5)C4)n3)ccc21 (stereo not drawn) | 953
CC(C)C(=O)N1CCN(c2nc(CN3CCCCC3)cs2)CC1 | 603
CC1=C(c2cccc(Cl)c2)S(=O)(=O)N=C1N1CCCN(C(=O)NCC(C)C)CC1 | 814
COc1cccc(-c2csc(-c3nnn(-c4ccc(C)c(C)c4)c3N)n2)c1 | 1170
CCOC(=O)C1CCCN(C(=O)C2CCc3nc(N(CC)CC)ncc3C2)C1 (stereo not drawn) | 620
COc1ccc(-c2ncc3c(n2)CCN(S(=O)(=O)c2ccc(C)cc2C)C3)cc1 | 1140
Cc1nc(C2CN(S(=O)(=O)c3c(C)c(C)cc(C)c3C)CC23CCOCC3)no1 (stereo not drawn) | 1020
Cc1ccc(Cl)cc1NS(=O)(=O)c1cc2c(s1)CCN(C(=O)C1CC1)C2 | 901
COc1ccc(NC(=O)N2CCc3c(c(=O)c4cc(C)cc(C)c4n3C)C2)cc1OC | 628
Cc1ccc2c(c1)N(C(=O)c1ccc(C#N)cc1)CCO2 | 925

Second part, the molecule after the results:

RP-LC retention time [s] | SMILES
657 | O=C(CCc1conc1-c1ccc(F)cc1)NC1CCN(Cc2ccccc2)CC1
871 | Cc1ccc(NC(=O)Cn2nc(N3CCOCC3)c3ccccc3c2=O)c(Cl)c1
764 | CCN(CC)C(=O)c1ccc2c(c1)nnn2CCNC(=O)Nc1ccc2c(c1)CCC2
621 | CCc1noc(-c2cnc3nc(C)ccc3c2NCCc2ccccc2)n1
1200 | COc1ccc(N2CCN(c3cc(SCC(=O)Nc4cc(Cl)ccc4OC)ncn3)CC2)cc1
981 | COc1ccccc1NC(=O)C1CCN(S(=O)(=O)c2c(C)nn(-c3ccccc3)c2C)CC1
802 | O=C(Cn1nc(S(=O)(=O)c2cccc(F)c2)ccc1=O)N1CCN(c2ccccc2)CC1
769 | CSCCC(NC(=O)COc1cccc2ccccc12)C(=O)O (stereo not drawn)
1230 | COC(=O)c1sccc1NC(=O)N1CCc2c([nH]c3ccccc23)C1c1ccc(OC)cc1 (stereo not drawn)
760 | CCc1ccc(N2CC(c3noc(-c4cnccn4)n3)CC2=O)cc1 (stereo not drawn)
720 | Cc1ccc2c(Nc3cccc(C(C)C)c3)c(C(=O)N3CCCCC3C)cnc2n1 (stereo not drawn)
888 | COc1ccc(Cn2cc(S(=O)(=O)N3CCCCC3)ccc2=O)cc1
1020 | Cc1ccc2c(c1)N(S(C)(=O)=O)CCC(C(=O)Nc1ccc(Br)cc1)O2 (stereo not drawn)
679 | CCN1CCC(N(Cc2cccs2)C(=O)Nc2ccccc2Br)CC1
766 | Cc1ccc(-n2nc3c(N4CCCC(C(=O)NCCc5ccccc5)C4)nnc(C)c3c2C)cc1 (stereo not drawn)
700 | O=C(NCCC1CCN(C(=O)Nc2ccc(F)cc2F)CC1)c1ccco1
883 | O=C(c1cn(-c2cc(-c3nc(C4CC4)no3)ccn2)cn1)N1CCCCCC1
1040 | Cc1ccc2c(c1)N(S(C)(=O)=O)CCC(C(=O)Nc1ccccc1Br)O2 (stereo not drawn)
661 | CCOc1ccc(NC(=O)c2nc(N(C)C)c3c(C)cc(C)nc3n2)cc1
639 | CCCn1c(CCNC(=O)c2cccc(Cl)c2)nc2cccnc21
832 | O=C(Nc1cccc(F)c1)C1CCN(C(=O)c2ncn3c2COC(c2ccc(F)cc2)C3)CC1 (stereo not drawn)
995 | CCc1ccc(Nc2nc(C(=O)NC3CCCCC3)nc3ccccc23)cc1

RP-LC retention time [s] | SMILES
971 | COC(=O)c1ccc(C(=O)NCC2(c3cccs3)CCCC2)cc1
855 | COc1ccccc1CC(=O)Nc1ccc2c(c1)Sc1ncccc1C(=O)N2C(C)C
575 | O=C(NCCc1ccccn1)C1CCc2nc(N3CCCCC3)ncc2C1 (stereo not drawn)
635 | CC1CCCN(CCCNC(=O)CN2C(=O)CCn3nc(-c4cn(C)c5ccccc45)cc32)C1 (stereo not drawn)
672 | CC(=O)Nc1ccc(OCC(=O)NCc2cc(F)cc(F)c2)nc1
901 | Cc1oc(-c2ccc(NC(=O)c3ccc(Br)o3)cc2)nc1Cn1cccn1
857 | O=C(Cn1ccn2nc(-c3ccccc3)c(CO)c2c1=O)NCCC1=CCCCC1
918 | CCn1cc(-c2nc(CC(=O)Nc3ccc(OC)c(Cl)c3)cs2)c2cccnc21
885 | O=C(Cn1c(C(F)(F)F)nc2cc3c(cc21)OCCO3)NCc1ccc(Cl)cc1
837 | Cn1cc(CC(=O)NCc2nc(-c3ccccc3)no2)c2ccccc21
704 | CNC(=O)CCc1nc2ccccc2n(CC(=O)NCCCc2ccccc2)c1=O
793 | COc1ccccc1NC(=O)CSC1CCc2ccccc2NC1=O (stereo not drawn)
656 | Cc1ccccc1NC(=O)N1CCCC(Cn2c(C3CC3)nc3cccnc32)C1 (stereo not drawn)
1010 | COc1ccccc1N1CCN(c2nccc(-n3nc(C)cc3C)n2)CC1
598 | O=C(Cn1c(=O)oc2ccccc21)N1CCN(c2ccccn2)CC1
779 | CN(C)c1ccc(C(=O)N2CCC(COc3ccc(C(=O)NC4CC4)cc3)CC2)cc1
789 | O=C(CN(c1ccc(F)cc1)S(=O)(=O)c1cccnc1)NCCc1ccccc1
850 | CCCC(=O)N1CC(c2nc(-c3ccccc3)no2)C2(CCOCC2)C1 (stereo not drawn)
637 | CCC(=O)N1CCc2cc(N3CC(C(=O)NCc4ccc(Cl)cc4)CC3=O)ccc21 (stereo not drawn)
881 | CCn1c(=O)sc2cc(S(=O)(=O)N3CCC(C(=O)NCc4ccccc4OC)CC3)ccc21
688 | CCn1cc(CN2CCC(C(=O)NC3CCCCC3)CC2)c2cc(OC)ccc21
588 | O=C(CCc1c[nH]c2ccccc12)N1CC(n2ccnc2)C1
